Converted amounts (≈) assume the structure as drawn. “Also recorded” adds a separate entry of the source.
Tests used:
[1] = test system: T47D (human ductal breast epithelial tumor cell line); assay: Antiproliferative WST-1 assay, breast tumor T47D; format: cell-based; settings: T47D cells; for EC50: Homo sapiens, read-out: Antiproliferative activity EC50 T47-D
Experimental: (§1) Compounds were evaluated for their anticancer activity using […] cultured cell lines: SNB-19 (human glioblastoma, DSMZ—German Collection of Microorganisms and Cell Cultures, Braunschweig, Germany), C-32 (human amelanotic melanoma, ATCC—American Type Culture Collection, Manassas, VA, USA), T47D (human ductal breast epithelial tumor cell line, ATCC, Manassas, VA, USA), and HFF-1 (human fibroblast cell line, ATCC, Manassas, VA, USA). The cultured cells were kept at 37 °C and 5 % CO2. The cells were seeded (1 × 10^4 cells/well/100 μl DMEM supplemented with 10 % FCS and streptomycin and penicillin) using 96-well plates (Corning).
(§2) In recent years, tetrazolium salts have been described which can be used for the measurement of cell proliferation and viability. The tetrazolium salts are cleaved to formazan by cellular enzymes. An expansion in the number of viable cells results in an increase in the overall activity of mitochondrial dehydrogenases in the sample. This augmentation in enzyme activity leads to an increase in the amount of formazan dye formed, which directly correlates with the number of metabolically active cells in the culture. The formazan dye produced by metabolically active cells is quantified by a scanning ELISA reader by measuring the absorbance of the dye solution at appropriate wavelengths (λ = 420–480 nm with a reference wavelength λ = 600 nm).
(§3) Antiproliferative effect of compounds was determined using the Cell Proliferation Reagent WST-1 assay (Roche Diagnostics, Mannheim, Germany). After exposure to tested compounds (at concentrations between 0 and 100 μg/ml) for 72 h, cells were incubated with WST-1 (10 μl) for 1 h, and the absorbance of the samples against a background control was read at 450 nm using with a reference wavelength λ = 600 nm a microplate reader. Results are expressed as means of at least two independent experiments performed in triplicate.

[2] = test system: C-32 (human amelanotic melanoma); assay: Antiproliferative WST-1 assay, melanoma C-32; format: cell-based; settings: C-32 cells; for EC50: Homo sapiens, C32
Experimental: as §1, §2, §3

[3] = test system: HFF-1 (human fibroblast cell line); assay: Antiproliferative WST-1 assay, normal fibroblasts HFF-1 (toxicity control); format: cell-based
Experimental: as §1, §2, §3

[4] = test system: SNB-19 (human glioblastoma); assay: Antiproliferative WST-1 assay, glioblastoma SNB-19; format: cell-based; settings: for Antiproliferative activity EC50 SBN-19 / EC50 / Activity against SNB-19 cell line (in words): SNB-19 cells; for Antiproliferative activity EC50 SBN-19 / EC50: 72 h exposure, WST-1; for EC50: Homo sapiens, SNB-19, 72 h, read-out: Antiproliferative activity EC50 SBN-19; for Activity against SNB-19 cell line (in words): compared with azathioprine
Experimental: as §1, §2, §3

[5] = normal human fibroblasts HFF-1, 72 h exposure, WST-1

| SMILES | EC50 ([1]; 72 h exposure, WST-1) | EC50 ([2]; 72 h exposure, WST-1) | EC50 [4] | EC50 [3, 5] | other results |
| --- | --- | --- | --- | --- | --- |
| N.N.[Cl][Pt][Cl] [Cisplatin, reference compound] | – | – | – | – | Antiproliferative activity EC50 T47-D ([1]; 72 h exposure, WST-1): 8.79 µg/mL; Antiproliferative activity EC50 C-32 ([2]; 72 h exposure, WST-1): 6.28 µg/mL; Antiproliferative activity EC50 HFF-1 [3, 5]: 30.00 µg/mL; Antiproliferative activity EC50 SBN-19 [4]: 4.45 µg/mL |
| Cn1cnc([N+](=O)[O-])c1Sc1ncnc2nc[nH]c12 [Azathioprine, reference compound] | 39 µg/mL (≈ 141 µM) | 35.6 µg/mL (≈ 128 µM) | 37.2 µg/mL (≈ 134 µM) | 55.9 µg/mL (≈ 202 µM) | – |
| CCN(CC)CCSc1nc(Cl)nc2ncn(C)c12 [Compound 4a] | 41.3 µg/mL (≈ 138 µM) | 22.5 µg/mL (≈ 74.9 µM) | 28.8 µg/mL (≈ 96 µM) | > 50 µg/mL | – |
| CCN(CC)CCSc1nc(SCCN(CC)CC)c2c(ncn2C)n1 [Compound 4c] | 24 µg/mL (≈ 60.5 µM) | 33.5 µg/mL (≈ 84.6 µM) | < 10 µg/mL | 40 µg/mL (≈ 101 µM) | Antiproliferative activity EC50 SBN-19 [4]: 9.82 µg/mL |
| CSc1nc(Sc2c([N+](=O)[O-])ncn2C)c2c(ncn2C)n1 [Compound 3c] | 48.6 µg/mL (≈ 144 µM) | > 50 µg/mL | > 50 µg/mL | > 50 µg/mL | – |
| Cn1cnc([N+](=O)[O-])c1Sc1nc(Sc2c([N+](=O)[O-])ncn2C)c2c(ncn2C)n1 [Compound 3d, 7-methyl-2,6-di(1-methyl-4-nitroimidazol-5-ylthio)purine] | > 50 µg/mL | > 50 µg/mL | > 50 µg/mL | > 50 µg/mL | Anticancer activity against tested cell lines (in words) ([4]; SNB-19, C-32 and T47D cell lines overall): inactive |
| C=CCSc1nc(Sc2c([N+](=O)[O-])ncn2C)nc2ncn(C)c12 [Compound 2b] | 49.6 µg/mL (≈ 136 µM) | 35.3 µg/mL (≈ 97.2 µM) | 33.3 µg/mL (≈ 91.5 µM) | > 50 µg/mL | Activity against C-32 cell line (in words) [2]: more active than azathioprine; Activity against SNB-19 cell line (in words) [4]: more active than azathioprine |
| Cn1cnc([N+](=O)[O-])c1Sc1nc(Cl)nc2ncn(C)c12 [Compound 3a] | > 50 µg/mL | 12.8 µg/mL (≈ 39.3 µM) | 30.4 µg/mL (≈ 93.3 µM) | 34.9 µg/mL (≈ 107 µM) | Activity against C-32 cell line (in words) [2]: more active than azathioprine; also recorded: good activity; Activity against SNB-19 cell line (in words) [4]: more active than azathioprine |
| CN(C)CCCSc1nc(Cl)nc2ncn(C)c12 [Compound 4b] | > 50 µg/mL | > 50 µg/mL | < 10 µg/mL | > 50 µg/mL | Antiproliferative activity EC50 SBN-19 [4]: 8.45 µg/mL |
| COc1nc(Sc2c([N+](=O)[O-])ncn2C)c2c(ncn2C)n1 [Compound 3b] | > 50 µg/mL | > 50 µg/mL | > 50 µg/mL | > 50 µg/mL | – |
| Cn1cnc([N+](=O)[O-])c1Sc1nc(Cl)c2c(ncn2C)n1 [Compound 2a] | 41.1 µg/mL (≈ 126 µM) | 21.8 µg/mL (≈ 66.8 µM) | 17.9 µg/mL (≈ 55 µM) | > 50 µg/mL | Activity against C-32 cell line (in words) [2]: more active than azathioprine; Activity against SNB-19 cell line (in words) [4]: more active than azathioprine |

Second part, led by results:

| EC50 ([1]; 72 h exposure, WST-1) | EC50 ([2]; 72 h exposure, WST-1) | EC50 [4] | SMILES | EC50 [3, 5] | other results |
| --- | --- | --- | --- | --- | --- |
| 46 µg/mL (≈ 143 µM) | 7.58 µg/mL (≈ 23.6 µM) | 5 µg/mL (≈ 15.5 µM) | Cn1cnc2nc(Cl)nc(SCC#CCN3CCCC3)c21 [Compound 5b, 2-chloro-6-(4-N-pyrrolidinylbut-2-ynylthio)-7-methylpurine] | 43.1 µg/mL (≈ 134 µM) | Activity against T47D cell line (in words) [1]: weak active; melting point: 129 to 130 °C; Toxicity against normal fibroblasts HFF-1 (in words) ([3]; HFF-1 cells): weak active |
| > 50 µg/mL | > 50 µg/mL | 36.3 µg/mL (≈ 98.4 µM) | CN(C)CCCSc1nc(SCCCN(C)C)c2c(ncn2C)n1 [Compound 4d] | > 50 µg/mL | – |
| > 50 µg/mL | > 50 µg/mL | > 50 µg/mL | Cn1cnc2nc(SCCN3CCOCC3)nc(SCCN3CCOCC3)c21 [Compound 4g] | > 50 µg/mL | – |
| > 50 µg/mL | > 50 µg/mL | > 50 µg/mL | CSc1nc(S(N)(=O)=O)c2c(ncn2C)n1 [Compound 8c, 2-Methylthio-7-methyl-6-purinesulfonamide] | > 50 µg/mL | – |
| > 50 µg/mL | > 50 µg/mL | > 50 µg/mL | Cn1cnc2nc(S(N)(=O)=O)nc(S(N)(=O)=O)c21 [Compound 8d, 7-Methyl-2,6-purinedisulfonamide] | > 50 µg/mL | – |
| 32.2 µg/mL (≈ 76.7 µM) | 21.8 µg/mL (≈ 51.8 µM) | < 10 µg/mL | Cn1cnc2nc(SCCN3CCCCC3)nc(SCCN3CCCCC3)c21 [Compound 4f] | 45.5 µg/mL (≈ 108 µM) | Antiproliferative activity EC50 SBN-19 [4]: 9.18 µg/mL |
| 38.4 µg/mL (≈ 97.8 µM) | 27.1 µg/mL (≈ 68.9 µM) | < 10 µg/mL | Cn1cnc2nc(SCCN3CCCC3)nc(SCCN3CCCC3)c21 [Compound 4e] | 35.4 µg/mL (≈ 90.2 µM) | Antiproliferative activity EC50 SBN-19 [4]: 7.95 µg/mL |
| > 50 µg/mL | > 50 µg/mL | > 50 µg/mL | Cn1cnc2nc(Cl)nc(S(N)(=O)=O)c21 [Compound 8a, 2-Chloro-7-methyl-6-purinesulfonamide] | > 50 µg/mL | – |
| 44.3 µg/mL (≈ 186 µM) | 35.4 µg/mL (≈ 148 µM) | 30.9 µg/mL (≈ 130 µM) | C#CCSc1nc(Cl)nc2ncn(C)c12 [Compound 5a, 2-chloro-6-(prop-2-ynylthio)-7-methylpurine] | 49 µg/mL (≈ 205 µM) | melting point: 183 to 184 °C |
| > 50 µg/mL | > 50 µg/mL | 35 µg/mL (≈ 144 µM) | COc1nc(S(N)(=O)=O)c2c(ncn2C)n1 [Compound 8b, 2-Methoxy-7-methyl-6-purinesulfonamide] | > 50 µg/mL | – |
| > 50 µg/mL | > 50 µg/mL | > 50 µg/mL | Cn1cnc2nc(Cl)nc(SN)c21 [Compound 10a, 2-Chloro-7-methyl-6-purinesulfenamide] | > 50 µg/mL | – |

Reference: paper PMC4491105, “Synthesis and anticancer activity of thiosubstituted purines” (Medicinal Chemistry Research, 2015)
